target: T1, rhesus (Macacca Mulatta) H3 receptor (Macaca mulatta, UniProt Q865E1); assay: Rhesus H3 [3H]-Methylhistamine radioligand binding assay (SPA); set-up: species or system rhesus monkey (Macacca Mulatta); conditions: [3H]-Methylhistamine 2 nM, rhesus H3 membranes, Cheng-Prusoff; read-out: Affinity: ki in Rhesus H3 membrane binding ki
T1 construct: pcDNA5/FRT/TO (Invitrogen) containing the rhesus monkey (Macacca Mulatta) 445 amino acid H3 receptor
Method: Rhesus H3 membranes were prepared from the Flp-In T-REx 293 Cell Line (Invitrogen) stably transfected with pcDNA5/FRT/TO (Invitrogen) containing the rhesus monkey (Macacca Mulatta) 445 amino acid H3 receptor. (Genbank #AY231164). Stably transfected cultures were amplified in tissue culture flasks by standard tissue culture methods and induced to express rhesus H3 by exposure to 500 ng/ml tetracycline (Cellgro) for 24 hours. After induction, cells were dissociated from flasks utilizing Cell Stripper (Cellgro). Cells were centrifuged (1K×g, 5 min) and pellet frozen in an ethanol-dry ice bath to disrupt cell membranes. Frozen cell pellet was re-suspended in 5 mM HEPES (pH 7.4, Invitrogen) at 10 ml/1000 cm2 of harvested cells. The cell suspension was drawn through an 18 gauge needle (2-3×) followed by a 23 gauge needle (2-3×) to further disrupt cell membranes. The cell suspension was centrifuged (40K×g, 30 min). Cell membrane pellet was re-suspended in 5 mM HEPES (pH 7.4, Invitrogen) at a final protein concentration of 10 mg/ml. Rhesus H3 membranes were stored under liquid nitrogen prior to use in [3H]-Methylhistamine and GTPγS radioligand binding assays.
Rhesus H3 radioligand binding assay was performed using rhesus H3 receptor membranes (prepared as described above), [3H]-Methylhistamine (Perkin Elmer) and WGA SPA beads (wheat germ agglutinin scintillation proximity assay) beads (Amersham). The assay was performed in 96-well Opti-Plates (Packard). Each reaction contained 50 μl rhesus H3 membranes (20-30 μg total protein), 50 μl WGA SPA beads (0.1 μg) and 50 μl of 83Ci/mmol [^3H]-Methylhistamine (final concentration 2 nM) and 50 μl of tested compound. The compounds of this invention and/or vehicle were diluted with binding buffer from 10 mM DMSO stocks. Assay plates were sealed with TopSeal (Perkin Elmer) and mixed on shaker (25° C., 1 hour). Assay plates were read on TopCount scintillation counter (Packard). Results were analyzed by Hill transformation and Ki values were determined by Cheng-Prusoff equation.

T1 sequence (Q865E1 1-445): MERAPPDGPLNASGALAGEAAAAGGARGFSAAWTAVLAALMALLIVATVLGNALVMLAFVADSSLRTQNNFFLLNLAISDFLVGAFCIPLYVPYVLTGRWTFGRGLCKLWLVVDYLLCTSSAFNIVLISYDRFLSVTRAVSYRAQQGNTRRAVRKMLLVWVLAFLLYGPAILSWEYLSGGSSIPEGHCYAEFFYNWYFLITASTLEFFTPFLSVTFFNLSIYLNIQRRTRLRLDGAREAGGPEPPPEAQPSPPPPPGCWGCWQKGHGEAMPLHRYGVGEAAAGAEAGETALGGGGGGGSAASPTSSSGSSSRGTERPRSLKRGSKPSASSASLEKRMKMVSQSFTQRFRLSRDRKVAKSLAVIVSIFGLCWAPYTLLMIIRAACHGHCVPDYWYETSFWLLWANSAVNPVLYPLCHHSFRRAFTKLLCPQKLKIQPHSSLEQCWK

Q: With `COCCNC(=O)c1ccc(C(=O)Nc2ccc(N3CCC(CN4CCCC4C)C3)cc2C)cn1` (stereo not shown) [Example 14, Pyridine-2,5-dicarboxylic acid 2-[(2-methoxy-ethyl)-amide]5-({2-methyl-4-[3-(2-methyl-pyrrolidin-1-ylmethyl)-pyrrolidin-1-yl]-phenyl}-amide)] as the compound, how does the Ki read?
A: 32.3 nM

Q: `Cc1cc(N2CCC(CN3CCCC3C)C2)ccc1NC(=O)c1cnc2cc(Cl)ccc2c1O` (stereo not shown) [Example 3, 7-Chloro-4-hydroxy-quinoline-3-carboxylic acid {2-methyl-4-[3-(2-methyl-pyrrolidin-1-ylmethyl)-pyrrolidin-1-yl]-phenyl}-amide] was tested. Which Ki did it give?
A: 94.7 nM

Q: With `Cc1ccc2oc(C(=O)Nc3ccc(N4CCC(CN5CCCC5C)C4)cc3C)cc(=O)c2c1` (stereo not shown) [Example 19, 6-Methyl-4-oxo-4H-chromene-2-carboxylic acid {2-methyl-4-[3-(2-methyl-pyrrolidin-1-ylmethyl)-pyrrolidin-1-yl]-phenyl}-amide] as the compound, how does the Ki read?
A: 26.5 nM

Q: How did the Ki turn out when `Cc1cc(N2CCC(CN3CCCC3C)C2)ccc1NC(=O)c1ccc2c(c1)NC(=O)CNC2=O` (stereo not shown) [Example 13, 2,5-Dioxo-2,3,4,5-tetrahydro-1H-benzo[e][1,4]diazepine-8-carboxylic acid {2-methyl-4-[3-(2-methyl-pyrrolidin-1-ylmethyl)-pyrrolidin-1-yl]-phenyl}-amide] was run?
A: 9.3 nM

Q: With `Cc1cc(N2CCC(CN3CCCC3C)C2)ccc1NC(=O)c1ccc(CO)cc1` (stereo not shown) [Example 11, 4-Hydroxymethyl-N-{2-methyl-4-[3-(2-methyl-pyrrolidin-1-ylmethyl)-pyrrolidin-1-yl]-phenyl}-benzamide] as the compound, how does the Ki read?
A: 62.1 nM

Q: How did the Ki turn out when `Cc1cc(N2CCC(CN3CCCC3C)C2)ccc1NC(=O)c1ccc2c(c1)CCO2` (stereo not shown) [Example 5, 2,3-Dihydro-benzofuran-5-carboxylic acid {2-methyl-4-[3-(2-methyl-pyrrolidin-1-ylmethyl)-pyrrolidin-1-yl]-phenyl}-amide] was run?
A: 40.4 nM

Q: With `Cc1cc(N2CCC(CN3CCCC3C)C2)ccc1NC(=O)c1ccc(-n2cccc2)nc1` (stereo not shown) [Example 4, N-{2-Methyl-4-[3-(2-methyl-pyrrolidin-1-ylmethyl)-pyrrolidin-1-yl]-phenyl}-6-pyrrol-1-yl-nicotinamide] as the compound, how does the Ki read?
A: 39.3 nM

Q: With `COc1ccc2cc(C(=O)Nc3ccc(N4CCC(CN5CCCC5C)C4)cc3C)oc2c1` (stereo not shown) [Example 15, 6-Methoxy-benzofuran-2-carboxylic acid {2-methyl-4-[3-(2-methyl-pyrrolidin-1-ylmethyl)-pyrrolidin-1-yl]-phenyl}-amide] as the compound, how does the Ki read?
A: 66.7 nM

Q: For `CC1=NN(c2ccc(C(=O)Nc3ccc(N4CCC(CN5CCCC5C)C4)cc3C)cc2)C(=O)C1` (stereo not shown) [Example 18, N-{2-Methyl-4-[3-(2-methyl-pyrrolidin-1-ylmethyl)-pyrrolidin-1-yl]-phenyl}-4-(3-methyl-5-oxo-4,5-dihydro-pyrazol-1-yl)-benzamide], which Ki is on record?
A: 59.4 nM

Q: With `Cc1cc(N2CCC(CN3CCCC3C)C2)ccc1NC(=O)c1ccc2c(c1)C(O)C(O)C(C)(C)O2` (stereo not shown) [Example 16, 3,4-Dihydroxy-2,2-dimethyl-chroman-6-carboxylic acid {2-methyl-4-[3-(2-methyl-pyrrolidin-1-ylmethyl)-pyrrolidin-1-yl]-phenyl}-amide] as the compound, how does the Ki read?
A: 67.6 nM

Q: For `Cc1ccc2c(O)c(C(=O)Nc3ccc(N4CCC(CN5CCCC5C)C4)cc3C)cnc2n1` (stereo not shown) [Example 17, 4-Hydroxy-7-methyl-[1,8]naphthyridine-3-carboxylic acid {2-methyl-4-[3-(2-methyl-pyrrolidin-1-ylmethyl)-pyrrolidin-1-yl]-phenyl}-amide], which Ki is on record?
A: 19.2 nM

Q: How did the Ki turn out when `COc1ccc2[nH]c(C(=O)Nc3ccc(N4CCC(CN5CCCC5C)C4)cc3C)cc2c1` (stereo not shown) [Example 12, 5-Methoxy-1H-indole-2-carboxylic acid {2-methyl-4-[3-(2-methyl-pyrrolidin-1-ylmethyl)-pyrrolidin-1-yl]-phenyl}-amide] was run?
A: 61.5 nM

Q: `CC(=O)N1CCCC(c2ccc(C(=O)Nc3ccc(N4CCC(CN5CCCC5C)C4)cc3C)cc2)C1` (stereo not shown) [Example 10, 4-(1-Acetyl-piperidin-3-yl)-N-{2-methyl-4-[3-(2-methyl-pyrrolidin-1-ylmethyl)-pyrrolidin-1-yl]-phenyl}-benzamide] was tested. Which Ki did it give?
A: 29.8 nM

Q: `Cc1cc(N2CCC(CN3CCCC3C)C2)ccc1NC(=O)c1ccc(-n2ccnc2)cc1` (stereo not shown) [Example 9, 4-Imidazol-1-yl-N-{2-methyl-4-[3-(2-methyl-pyrrolidin-1-ylmethyl)-pyrrolidin-1-yl]-phenyl}-benzamide] was tested. Which Ki did it give?
A: 3.1 nM

Q: `Cc1cc(N2CCC(CN3CCCC3C)C2)ccc1NC(=O)c1ccc(COCc2ccccc2)nc1` (stereo not shown) [Example 6, 6-Benzyloxymethyl-N-{2-methyl-4-[3-(2-methyl-pyrrolidin-1-ylmethyl)-pyrrolidin-1-yl]-phenyl}-nicotinamide] was tested. Which Ki did it give?
A: 95.4 nM

Q: How did the Ki turn out when `Cc1cc(N2CCC(CN3CCCC3C)C2)ccc1NC(=O)c1cnc(NCCO)c(Cl)c1` (stereo not shown) [Example 2, 5-Chloro-6-(2-hydroxy-ethylamino)-N-{2-methyl-4-[3-(2-methyl-pyrrolidin-1-ylmethyl)-pyrrolidin-1-yl]-phenyl}-nicotinamide] was run?
A: 51.2 nM

Q: How did the Ki turn out when `Cc1cc(N2CCC(CN3CCCC3C)C2)ccc1NC(=O)c1ccc2cc[nH]c2c1` (stereo not shown) [Example 8, 1H-Indole-6-carboxylic acid {2-methyl-4-[3-(2-methyl-pyrrolidin-1-ylmethyl)-pyrrolidin-1-yl]-phenyl}-amide] was run?
A: 18 nM

Q: For `Cc1nc2cc(C(=O)Nc3ccc(N4CCC(CN5CCCC5C)C4)cc3C)ccc2[nH]1` (stereo not shown) [Example 1, 2-M ethyl-1H-benzoimidazole-5-carboxylic acid {2-methyl-4-[3-(2-methyl-pyrrolidin-1-ylmethyl)-pyrrolidin-1-yl]-phenyl}-amide], which Ki is on record?
A: 15.7 nM

Q: How did the Ki turn out when `Cc1cc(N2CCC(CN3CCCC3C)C2)ccc1NC(=O)c1ccc2c(c1)OCO2` (stereo not shown) [Example 7, Benzo[1,3]dioxole-5-carboxylic acid {2-methyl-4-[3-(2-methyl-pyrrolidin-1-ylmethyl)-pyrrolidin-1-yl]-phenyl}-amide] was run?
A: 34.2 nM
